# Where “and” joins values, the source holds several entries; their conditions need not be identical. Identical values can stand only once.
# System: 695427-040-R-J1-PDC complex spheroid viability
# Assay: Anticancer human tumor 695427-040-R-J1-PDC patient-derived colon adenocarcinoma cell line growth inhibition [RAS]
# Conditions: for viability, T/C: stronger effect = lower value
# Procedure, shortened: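 Agents were tested in combination matrices in half-log decrements from a top concentration at or near clinical Cmax (10 microM if undetermined). Targets were multi-cell spheroids of tumour lines plus HUVEC and MSC stromal cells.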
# [1] = curve of first compound, second compound 0.000949 µM
# [2] = curve of first compound, second compound 0.003 µM
# [3] = curve of first compound, second compound 0.00949 µM
# [4] = curve of first compound, second compound 0.03 µM
# [5] = curve of first compound, second compound 0.0949 µM
# [6] = curve of first compound, second compound 0.3 µM
# [7] = second compound 0.000949 µM, first compound 0.0316 µM
# [8] = second compound 0.000949 µM, first compound 0.1 µM
# [9] = second compound 0.000949 µM, first compound 0.316 µM
# [10] = second compound 0.000949 µM, first compound 1 µM
# [11] = second compound 0.003 µM, first compound 0.0316 µM
# [12] = second compound 0.003 µM, first compound 0.1 µM
# [13] = second compound 0.003 µM, first compound 0.316 µM
# [14] = second compound 0.003 µM, first compound 1 µM
# [15] = second compound 0.00949 µM, first compound 0.0316 µM
# [16] = second compound 0.00949 µM, first compound 0.1 µM
# [17] = second compound 0.00949 µM, first compound 0.316 µM
# [18] = second compound 0.00949 µM, first compound 1 µM
# [19] = second compound 0.03 µM, first compound 0.0316 µM
# [20] = second compound 0.03 µM, first compound 0.1 µM
# [21] = second compound 0.03 µM, first compound 0.316 µM
# [22] = second compound 0.03 µM, first compound 1 µM
# [23] = second compound 0.0949 µM, first compound 0.0316 µM
# [24] = second compound 0.0949 µM, first compound 0.1 µM
# [25] = second compound 0.0949 µM, first compound 0.316 µM
# [26] = second compound 0.0949 µM, first compound 1 µM
# [27] = second compound 0.3 µM, first compound 0.0316 µM
# [28] = second compound 0.3 µM, first compound 0.1 µM
# [29] = second compound 0.3 µM, first compound 0.316 µM
# [30] = second compound 0.3 µM, first compound 1 µM
# 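Further: viability read after seven days of drug exposure.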
# 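Wherever viability, T/C is given: 100% = DMSO vehicle control viability.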
structure (smiles),measurement,setting,value
Cc1nc(N2CCC3(CC2)COC(C)C3N)c(CO)nc1Sc1ccnc(N)c1Cl (stereo unspecified) + CCn1c(-c2cc(N3CCN(C)CC3)cnc2C(C)OC)c2c3cc(ccc31)-c1csc(n1)CC(NC(=O)C1CC1C)C(=O)N1CCCC(N1)C(=O)OCC(C)(C)C2,IC50,[1],3420 nM
same,IC50,[2],1230 nM
same,IC50,[3],613 nM
same,IC50,[4],117 nM
same,IC50,[5],< 31.6 nM
same,IC50,[6],< 31.6 nM
same,"viability, T/C",[7],98.8%
same,"viability, T/C",[8],93.1%
same,"viability, T/C",[9],84.9%
same,"viability, T/C",[10],79.5%
same,"viability, T/C","second compound 0.000949 µM, first compound 3.16 µM",49.7%
same,"viability, T/C","second compound 0.000949 µM, first compound 10 µM",26.9%
same,"viability, T/C",[11],86.3%
same,"viability, T/C",[12],76.7%
same,"viability, T/C",[13],52.7%
same,"viability, T/C",[14],53.2%
same,"viability, T/C","second compound 0.003 µM, first compound 3.16 µM",49.9%
same,"viability, T/C","second compound 0.003 µM, first compound 10 µM",32.6%
same,"viability, T/C",[15],71%
same,"viability, T/C",[16],69.8%
same,"viability, T/C",[17],49.6%
same,"viability, T/C",[18],50.9%
same,"viability, T/C","second compound 0.00949 µM, first compound 3.16 µM",33.9%
same,"viability, T/C","second compound 0.00949 µM, first compound 10 µM",30.6%
same,"viability, T/C",[19],63.9%
same,"viability, T/C",[20],42.9%
same,"viability, T/C",[21],48.2%
same,"viability, T/C",[22],32.4%
same,"viability, T/C","second compound 0.03 µM, first compound 3.16 µM",29.8%
same,"viability, T/C","second compound 0.03 µM, first compound 10 µM",17.7%
same,"viability, T/C",[23],46.5%
same,"viability, T/C",[24],40.5%
same,"viability, T/C",[25],25.2%
same,"viability, T/C",[26],29.1%
same,"viability, T/C","second compound 0.0949 µM, first compound 3.16 µM",23%
same,"viability, T/C","second compound 0.0949 µM, first compound 10 µM",18.9%
same,"viability, T/C",[27],27.5%
same,"viability, T/C",[28],32.3%
same,"viability, T/C",[29],28.7%
same,"viability, T/C",[30],27.7%
same,"viability, T/C","second compound 0.3 µM, first compound 3.16 µM",24.4%
same,"viability, T/C","second compound 0.3 µM, first compound 10 µM",16%
Nc1ccn(C2OC(CO)C(O)C2(F)F)c(=O)n1 (stereo unspecified) + CCn1c(-c2cccnc2C(C)OC)c2c3cc(ccc31)N1CCOC(CC(NC(=O)C(C(C)C)N(C)C(=O)C3(F)CCN(C(=O)C#CC(C)(C)N(C)C)CC3)C(=O)N3CCCC(N3)C(=O)OCC(C)(C)C2)C1,IC50,[1],> 1000 nM
same,IC50,[2],> 1000 nM
same,IC50,[3],> 1000 nM
same,IC50,[4],> 1000 nM
same,IC50,[5],> 1000 nM
same,IC50,[6],> 1000 nM
same,"viability, T/C","second compound 0.000949 µM, first compound 0.00316 µM",92.7%
same,"viability, T/C","second compound 0.000949 µM, first compound 0.01 µM",106%
same,"viability, T/C",[7],98.3%
same,"viability, T/C",[8],82%
same,"viability, T/C",[9],77.3%
same,"viability, T/C",[10],67.5%
same,"viability, T/C","second compound 0.003 µM, first compound 0.00316 µM",79.4%
same,"viability, T/C","second compound 0.003 µM, first compound 0.01 µM",98%
same,"viability, T/C",[11],87.3%
same,"viability, T/C",[12],71%
same,"viability, T/C",[13],83.5%
same,"viability, T/C",[14],58.6%
same,"viability, T/C","second compound 0.00949 µM, first compound 0.00316 µM",98.3%
same,"viability, T/C","second compound 0.00949 µM, first compound 0.01 µM",74.3%
same,"viability, T/C",[15],87.2%
same,"viability, T/C",[16],64.8%
same,"viability, T/C",[17],82.7%
same,"viability, T/C",[18],63.5%
same,"viability, T/C","second compound 0.03 µM, first compound 0.00316 µM",83%
same,"viability, T/C","second compound 0.03 µM, first compound 0.01 µM",99%
same,"viability, T/C",[19],83.5%
same,"viability, T/C",[20],75.9%
same,"viability, T/C",[21],83.1%
same,"viability, T/C",[22],74.2%
same,"viability, T/C","second compound 0.0949 µM, first compound 0.00316 µM",80%
same,"viability, T/C","second compound 0.0949 µM, first compound 0.01 µM",94.6%
same,"viability, T/C",[23],99.6%
same,"viability, T/C",[24],73.5%
same,"viability, T/C",[25],77.8%
same,"viability, T/C",[26],62.2%
same,"viability, T/C","second compound 0.3 µM, first compound 0.00316 µM",63.5%
same,"viability, T/C","second compound 0.3 µM, first compound 0.01 µM",97.8%
same,"viability, T/C",[27],80.8%
same,"viability, T/C",[28],79.3%
same,"viability, T/C",[29],78.7%
same,"viability, T/C",[30],65.7%
CCC(CC)c1cc(NC2CCC(N)C2)n2nccc2n1 (stereo unspecified),"viability, T/C",compound 0.0316 µM,104% [middle of 4 runs]
same,"viability, T/C",compound 0.1 µM,96.3% [middle of 4 runs]
same,"viability, T/C",compound 0.316 µM,106% (2×) and 127% and 91%
same,"viability, T/C",compound 1 µM,108% [middle of 4 runs]
same,"viability, T/C",compound 3.16 µM,15.6% [middle of 4 runs]
same,"viability, T/C",compound 10 µM,12.6% [middle of 4 runs]
same,IC50,curve of compound,2170 nM and 1960 nM and 1820 nM
